From the NIST ThermoML archive (doi:10.1021/je1003065)

Assay: mn = molality of the nth substance listed, in mol/kg
Details: Liquid, Vibrating tube method

[Br-].[Li+] [lithium bromide] + CCO
Details	mass density [kg/m3]
293.15 K, 1024 kPa, m1 = 2.833	956.08
293.15 K, 1034 kPa, m1 = 0.9499	850.27
293.15 K, 5015 kPa, m1 = 3.368	986.33
293.15 K, 5029 kPa, m1 = 0.9499	853.2
293.15 K, 5201 kPa, m1 = 2.833	959.11
293.15 K, 10003 kPa, m1 = 0.2335	812.89
293.15 K, 10032 kPa, m1 = 2.833	962.5
293.15 K, 10041 kPa, m1 = 0.9499	856.81
293.15 K, 10061 kPa, m1 = 0.5972	835.46
293.15 K, 19924 kPa, m1 = 0.9499	863.69
293.15 K, 20003 kPa, m1 = 0.2335	820.16
293.15 K, 20038 kPa, m1 = 3.368	996.51
293.15 K, 29895 kPa, m1 = 0.9499	870.31
293.15 K, 29978 kPa, m1 = 3.368	1002.69
293.15 K, 29993 kPa, m1 = 0.5972	849.31
293.15 K, 39912 kPa, m1 = 0.5972	855.69
293.15 K, 39956 kPa, m1 = 0.2335	833.59
293.15 K, 39985 kPa, m1 = 2.833	981.35
293.15 K, 40003 kPa, m1 = 0.9499	876.7
293.15 K, 49936 kPa, m1 = 3.368	1014.01
293.15 K, 49993 kPa, m1 = 0.5972	861.83
293.15 K, 50002 kPa, m1 = 0.9499	882.7
293.15 K, 59924 kPa, m1 = 0.2335	845.57
293.15 K, 60001 kPa, m1 = 2.833	992.24
293.15 K, 60032 kPa, m1 = 0.9499	888.39
293.15 K, 70032 kPa, m1 = 2.833	997.31
293.15 K, 70102 kPa, m1 = 0.9499	893.78
293.15 K, 79914 kPa, m1 = 1.462	928.13
293.15 K, 79926 kPa, m1 = 0.2335	856.13
293.15 K, 79956 kPa, m1 = 0.9499	898.74
293.15 K, 79956 kPa, m1 = 2.833	1002.13
293.15 K, 80104 kPa, m1 = 3.368	1029.17
293.15 K, 89245 kPa, m1 = 0.9499	903.13
293.15 K, 89926 kPa, m1 = 0.5972	882.72
293.15 K, 89954 kPa, m1 = 0.2335	860.88
293.15 K, 89958 kPa, m1 = 2.833	1006.83
293.15 K, 89963 kPa, m1 = 1.462	932.84
293.15 K, 89989 kPa, m1 = 3.368	1033.84
293.15 K, 99824 kPa, m1 = 1.462	937.16
293.15 K, 99895 kPa, m1 = 3.368	1038.46
293.15 K, 99965 kPa, m1 = 0.9499	907.85
293.15 K, 99965 kPa, m1 = 2.833	1011.42
293.15 K, 99986 kPa, m1 = 0.2335	865.27
293.16 K, 1250 kPa, m1 = 3.368	983.6
293.16 K, 19905 kPa, m1 = 0.5972	842.47
293.16 K, 29938 kPa, m1 = 2.833	975.41
293.16 K, 39654 kPa, m1 = 3.368	1008.34
293.16 K, 69784 kPa, m1 = 0.2335	850.96
293.16 K, 99971 kPa, m1 = 0.5972	887.12
293.17 K, 1430 kPa, m1 = 2.272	926.33
293.17 K, 1504 kPa, m1 = 0.5972	829.09
293.17 K, 4902 kPa, m1 = 2.272	928.89
293.17 K, 4938 kPa, m1 = 0.5972	831.68
293.17 K, 10030 kPa, m1 = 2.272	932.58
293.17 K, 19789 kPa, m1 = 2.272	939.24
293.17 K, 29946 kPa, m1 = 2.272	945.75
293.17 K, 40161 kPa, m1 = 2.272	951.9
293.17 K, 49963 kPa, m1 = 2.272	957.45
293.17 K, 89964 kPa, m1 = 2.272	977.54
293.17 K, 99958 kPa, m1 = 2.272	982.14
293.18 K, 60025 kPa, m1 = 2.272	962.8
293.18 K, 69979 kPa, m1 = 2.272	967.88
293.19 K, 79838 kPa, m1 = 2.272	972.67
298.09 K, 1141 kPa, m1 = 0.5972	824.73
298.1 K, 99589 kPa, m1 = 2.272	978.52
298.11 K, 60144 kPa, m1 = 1.462	914.77
298.12 K, 39801 kPa, m1 = 1.462	902.81
298.12 K, 39933 kPa, m1 = 2.272	947.93
298.12 K, 49922 kPa, m1 = 1.462	908.93
298.12 K, 49993 kPa, m1 = 2.272	953.69
298.12 K, 60039 kPa, m1 = 2.272	959.15
298.12 K, 99737 kPa, m1 = 3.368	1034.98
298.13 K, 5308 kPa, m1 = 1.462	879.29
298.13 K, 59998 kPa, m1 = 0.5972	864.41
298.13 K, 69983 kPa, m1 = 2.272	964.25
298.13 K, 80661 kPa, m1 = 3.368	1025.85
298.13 K, 89925 kPa, m1 = 2.272	973.93
298.13 K, 89985 kPa, m1 = 3.368	1030.35
298.14 K, 5004 kPa, m1 = 2.833	954.84
298.14 K, 20004 kPa, m1 = 0.2335	816.39
298.14 K, 30021 kPa, m1 = 2.833	971.59
298.14 K, 70023 kPa, m1 = 2.833	993.85
298.14 K, 79924 kPa, m1 = 0.2335	853.09
298.15 K, 1023 kPa, m1 = 2.833	951.93
298.15 K, 1045 kPa, m1 = 0.9499	845.75
298.15 K, 1204 kPa, m1 = 0.2335	801.78
298.15 K, 5002 kPa, m1 = 0.2335	805.08
298.15 K, 5004 kPa, m1 = 0.9499	848.93
298.15 K, 5221 kPa, m1 = 0.5972	827.89
298.15 K, 10024 kPa, m1 = 0.9499	852.82
298.15 K, 10064 kPa, m1 = 0.2335	808.99
298.15 K, 19935 kPa, m1 = 2.833	965.15
298.15 K, 19956 kPa, m1 = 0.9499	860.13
298.15 K, 29124 kPa, m1 = 0.2335	822.86
298.15 K, 29945 kPa, m1 = 0.9499	866.97
298.15 K, 29950 kPa, m1 = 2.272	941.76
298.15 K, 29993 kPa, m1 = 0.5972	845.75
298.15 K, 29993 kPa, m1 = 1.462	896.53
298.15 K, 39784 kPa, m1 = 0.9499	873.28
298.15 K, 39830 kPa, m1 = 0.5972	852.23
298.15 K, 39845 kPa, m1 = 2.833	977.51
298.15 K, 49956 kPa, m1 = 0.2335	836.44
298.15 K, 49963 kPa, m1 = 0.5972	858.53
298.15 K, 50012 kPa, m1 = 0.9499	879.42
298.15 K, 59968 kPa, m1 = 2.833	988.68
